Measured values: patent US3980794A, “Method for promoting growth of poultry with 3-(5-nitro-2-imidazolyl)pyrazoles” (Eli Lilly and Company, priority 1975, dated 1976)
Values after ≈ are worked out from the molar mass of the structure shown. Read-outs that look alike come from different tables or passages of the source.

Experiments:
Actinomyces bovis 13684 = test: Susceptibility of anaerobic bacteria, agar dilution; format: cell-based; settings: read-out: 24 Hr. Minimum Inhibitory Concentration
[1] = test system: Clostridium innocuum 1373; test: as above; format: cell-based; settings: read-out: 24 Hr. Minimum Inhibitory Concentration
[2] = test system: Clostridium perfringens 81; test: microbe, parasite or virus in culture; format: cell-based; settings: Clostridium perfringens, 81, 24 h, read-out: 24 Hr. Minimum Inhibitory Concentration
Clostridium ramosum 1313 = test: Susceptibility of anaerobic bacteria, agar dilution; format: cell-based; settings: read-out: 24 Hr. Minimum Inhibitory Concentration
[3] = test system: Clostridium septicum 1128; test: as above; format: cell-based; settings: 24 h, read-out: 24 Hr. Minimum Inhibitory Concentration
Procedure: (§1) The susceptibility of anaerobic bacteria, both gram positive and gram negative, to a representative number of the novel compounds of this application was determined using the agar dilution method. The bacteria used were isolated from patients hospitalized at the Indiana University Medical Center. The isolates were identified in the anaerobe laboratory of the Medical Center by the criteria established by Dowell et al., Laboratory Methods in Anaerobic Bacteriology. Public Health Serv. Publ. No. 1803 (1968) [Center for Disease Control, Atlanta, Ga.]; and by Smith et al., The Pathogenic Anaerobic Bacteria, pages 96-136 (1968) [Charles C. Thomas, Publisher, Springfield, Ill.]. All the organisms were maintained in chopped meat glucose medium (Scott Labs) at room temperature.
(§2) The method used for the agar dilution tests was based on the studies of Sutter et al., Antimicrob. Ag. Chemother. 3, 188-193 (1973). The strains of anaerobic bacteria were grown in 16 × 120 mm. tubes for 16 to 18 hours in Thioglycolate medium without indicator--135C (Becton, Dickinson and Co.), to which was added 5 mcg. of hemin per milliliter prior to autoclaving, plus 1 mg. of sodium bicarbonate and 0.1 mcg. of filter-sterilized menadione per milliliter after autoclaving. The growth tubes for the bacteria Veillonella alcalescens were additionally supplemented with 5 mg. of sodium lactate per milliliter. The strains were adjusted to the turbidity of the No. 1 McFarland standard in Thioglycolate medium without indicator--135C containing an additional 0.13 percent Bacto-agar (Difco). Each strain was then applied to the surface of the petri plate (100 mm. × 15 mm.) by means of a replicator.
(§3) For the agar dilution studies, two-fold dilutions of the test compounds were prepared in deionized water to which was then added laked sheep blood and filter-sterilized menadione so the concentrations after the agar dilution were 5 percent and 10 mcg./ml. respectively. An equal volume of double strength Brucella agar (Becton, Dickinson and Co.) was mixed with each dilution in a water bath held at 50°C. and then poured onto the petri plates.
(§4) All of the procedures were done inside a plastic glove box, except for the incubation of the growth tubes and the pouring of the plates. After the plates hardened, they were put inside the glove box for a minimum of two hours before they were inoculated. Generally, the glove box procedures of Aranki et al., Applied Microbiology 17, 568-576 (1969), were followed, but the following modifications were used. Dry materials were introduced into the glove box by evacuating the lock to 28 inches of mercury and filling once with nitrogen gas, followed by evacuating in the same manner and filling with an 80 percent nitrogen plus 10 percent CO2 plus 10 percent hydrogen gas mixture. Liquid media and agar plates were introduced into the glove box by evacuating the lock to 10 inches of mercury and filling with gas four times. The nitrogen gas was used to fill the lock for the first two cycles of evacuation, with the gas mixture described above used for the final two fillings.
(§5) All the plates were incubated at 37°C. in Gas Pak jars (Becton, Dickinson and Co.) containing palladium-coated alumina catalysts (reactivated after each use). The results of the agar dilution tests were read after about 24 hours of incubation. The minimum inhibitory concentration (MIC) was recorded as the lowest concentration of test compound at which there was no growth.
(§6) The results of these in vitro tests are recorded in Charts 11 and 12 which follow. The test compounds are identified in the same manner as in the previous experiments. The antibiotics cephalothin and erythromycin were also run simultaneously with the novel compounds of this application, for comparison purposes, and the results are included in Charts 11 and 12 below.

[4] = test system: Clostridium septicum bovine; test: as above; format: cell-based; settings: 24 h, read-out: 24 Hr. Minimum Inhibitory Concentration
Procedure: as §1, §2, §3, §4, §5, §6

[5] = test system: Eubacterium aerofaciens 1235; test: as above; format: cell-based; settings: read-out: 24 Hr. Minimum Inhibitory Concentration
[6] = test system: Peptococcus anaerobius 1428; test: as above; format: cell-based; settings: 24 h, read-out: 24 Hr. Minimum Inhibitory Concentration
[7] = test system: Peptostreptococcus intermedius 1264; test: as above; format: cell-based; settings: read-out: 24 Hr. Minimum Inhibitory Concentration
[8] = test system: Propionibacterium acnes 44; test: as above; format: cell-based; settings: read-out: 24 Hr. Minimum Inhibitory Concentration
[9] = test system: Propionibacterium acnes 79; test: as above; format: cell-based; settings: read-out: 24 Hr. Minimum Inhibitory Concentration
[10] = test system: Bacteroides fragilis sp. fragilis 1877; test: as above; format: cell-based; settings: 24 h, read-out: 24 Hr. Minimum Inhibitory Concentration
[11] = test system: Bacteroides fragilis sp. fragilis 1936B; test: as above; format: cell-based; settings: 24 h, read-out: 24 Hr. Minimum Inhibitory Concentration
[12] = test system: Bacteroides fragilis sp. thetaiotaomicron 1438; test: as above; format: cell-based; settings: 24 h, read-out: 24 Hr. Minimum Inhibitory Concentration
[13] = test system: Bacteroides fragilis sp. vulgatus 1563; test: as above; format: cell-based; settings: 24 h, read-out: 24 Hr. Minimum Inhibitory Concentration
[14] = test system: Bacteroides fragilis sp. vulgatus 1211; test: as above; format: cell-based; settings: 24 h, read-out: 24 Hr. Minimum Inhibitory Concentration
[15] = test system: Fusobacterium symbiosum 1470; test: as above; format: cell-based; settings: read-out: 24 Hr. Minimum Inhibitory Concentration
[16] = test system: Fusobacterium necrophorum 13859; test: as above; format: cell-based; settings: read-out: 24 Hr. Minimum Inhibitory Concentration
[17] = test system: Veillonella alcalescens 1; test: as above; format: cell-based; settings: read-out: 24 Hr. Minimum Inhibitory Concentration
Salmonella typhimurium = test: Control of infections caused by Salmonella typhimurium in chickens, subcutaneous (Experiment 2); format: in vivo; settings: Salmonella enterica, sc, 144 h, 6 days, read-out: Survival Ratio (converted)
Procedure: The efficacy of the novel compounds in the control of infections caused by Salmonella typhimurium in chickens was evaluated in the following manner.
The test was carried out using day-old chicks weighing approximately 35 g. each. The chicks were divided into groups of 5 chicks per each dosage level. A portion of the chicks received the test compound which was suspended in 0.2 ml. of polyethylene glycol 200 and administered subcutanusly in the neck. […] All the chicks were challenged with a 1:200 dilution of a culture of the organism, 0.1 ml. of the dilution being injected into each chick in the leg intramuscularly. […] The test compounds are identified in the same manner as set forth in Experiment 1.
In the chart, column 1 lists the compounds tested; column 2, the dosage of test compound in mg./kg.; and column 3, the survival ratio.

[18] = 24 h, Clostridium innocuum 1373
[19] = Thomasclavelia ramosa, 24 h, Clostridium ramosum 1313
[20] = Collinsella aerofaciens, 24 h, Eubacterium aerofaciens 1235
[21] = 24 h, Peptostreptococcus intermedius 1264
[22] = Cutibacterium acnes, 24 h, Propionibacterium acnes 44
[23] = Cutibacterium acnes, 24 h, Propionibacterium acnes 79
[24] = Bacteroides fragilis sp. fragilis 1877
[25] = Bacteroides fragilis sp. fragilis 1936B
[26] = Bacteroides fragilis sp. thetaiotaomicron 1438
[27] = Bacteroides fragilis sp. vulgatus 1563
[28] = Bacteroides fragilis sp. vulgatus 1211
[29] = 24 h, Fusobacterium symbiosum 1470
[30] = 24 h, Fusobacterium necrophorum 13859
[31] = Veillonella parvula, 24 h, Veillonella alcalescens 1
[32] = [Clostridium] innocuum, 1373, 24 h
[33] = Collinsella aerofaciens, 1235, 24 h
[34] = Fusobacterium necrophorum, 13859, 24 h

| Compound | MIC (Actinomyces bovis 13684; 24 h, Actinomyces bovis 13684) [µg/mL] | MIC [2] [µg/mL] | MIC (Clostridium ramosum 1313; [19]) [µg/mL] | MIC [3] [µg/mL] | MIC [4] [µg/mL] | MIC [7, 21] [µg/mL] | MIC [8, 22] [µg/mL] | MIC [17, 31] [µg/mL] | MIC (Actinomyces bovis 13684; Actinomyces bovis, 13684, 24 h) [µg/mL] | MIC [1, 32] [µg/mL] | MIC [5, 33] [µg/mL] | MIC [6] [µg/mL] | MIC ([9]; Cutibacterium acnes, 79, 24 h) [µg/mL] | MIC ([10]; Bacteroides fragilis) [µg/mL] | MIC ([11]; Bacteroides fragilis) [µg/mL] | MIC ([12]; Bacteroides fragilis) [µg/mL] | MIC ([13]; Bacteroides fragilis) [µg/mL] | MIC ([14]; Bacteroides fragilis) [µg/mL] | MIC ([15]; Fusobacterium, 1470, 24 h) [µg/mL] | MIC [16, 34] [µg/mL] | further results |
| --- | --- | --- | --- | --- | --- | --- | --- | --- | --- | --- | --- | --- | --- | --- | --- | --- | --- | --- | --- | --- | --- |
| CCNc1cc(-c2ncc([N+](=O)[O-])n2C)nn1C [Compound 11A, 5-(ethylamino)-1-methyl-3-(1-methyl-5-nitro-2-imidazolyl)pyrazole] | 2 (≈ 7.99 µM) | 0.03 (≈ 0.12 µM) | 0.5 (≈ 2 µM) | 0.06 (≈ 0.24 µM) | 0.06 (≈ 0.24 µM) | 8 (≈ 32 µM) | 8 (≈ 32 µM) | 1 (≈ 4 µM) |  |  |  |  |  |  |  |  |  |  |  |  | MIC [1, 18]: 0.125 µg/mL (≈ 0.499 µM); MIC [5, 20]: < 0.03 µg/mL; MIC ([6]; Peptococcus anaerobius 1428): 1 µg/mL (≈ 4 µM); MIC [9, 23]: < 0.03 µg/mL; MIC [10, 24]: 0.06 µg/mL (≈ 0.24 µM); MIC [11, 25]: 2 µg/mL (≈ 7.99 µM); MIC [12, 26]: 0.06 µg/mL (≈ 0.24 µM); MIC [13, 27]: < 0.03 µg/mL; MIC [14, 28]: < 0.03 µg/mL; MIC [15, 29]: < 0.03 µg/mL; MIC [16, 30]: < 0.03 µg/mL |
| Cn1nc(-c2ncc([N+](=O)[O-])n2C)cc1N [Compound 3, 5-Amino-1-methyl-3-(1-methyl-5-nitro-2-imidazolyl)pyrazole] |  | < 0.125 | 4 (≈ 18 µM) | < 0.125 | < 0.125 | 16 (≈ 72 µM) | 0.5 (≈ 2.25 µM) |  | < 0.125 | < 0.125 | < 0.125 | < 0.125 | < 0.125 | < 0.125 | < 0.125 | < 0.125 | < 0.125 | < 0.125 | < 0.125 | < 0.125 | MIC ([17]; Veillonella parvula, 1, 24 h): < 0.125 µg/mL |
| CC[C@H]1OC(=O)[C@H](C)[C@@H](O[C@H]2C[C@@](C)(OC)[C@@H](O)[C@H](C)O2)[C@H](C)[C@@H](O[C@@H]2O[C@H](C)C[C@H](N(C)C)[C@H]2O)[C@](C)(O)C[C@@H](C)C(=O)[C@H](C)[C@@H](O)[C@]1(C)O [Erythromycin, erythromycin, reference compound] |  | < 0.5 | > 128 | 1 (≈ 1.36 µM) | < 0.5 |  |  | 1 (≈ 1.36 µM) | 1 (≈ 1.36 µM) | > 128 | 1 (≈ 1.36 µM) | 1 (≈ 1.36 µM) | < 0.5 | 4 (≈ 5.45 µM) | 4 (≈ 5.45 µM) | 4 (≈ 5.45 µM) | 2 (≈ 2.73 µM) | 2 (≈ 2.73 µM) | < 0.5 | 2 (≈ 2.73 µM) | MIC ([7]; Peptostreptococcus, 1264, 24 h): 8 µg/mL (≈ 10.9 µM); MIC ([8]; Cutibacterium acnes, 44, 24 h): < 0.5 µg/mL |
| CC(=O)Nc1c(C#N)c(-c2ncc([N+](=O)[O-])n2C)nn1C [Compound 8, N-[4-cyano-1-methyl-3-(1-methyl-5-nitro-2-imidazolyl)pyrazol-5-yl]acetamide] | 4 (≈ 13.8 µM) | 1 (≈ 3.46 µM) | 0.25 (≈ 0.864 µM) | 0.25 (≈ 0.864 µM) | 1 (≈ 3.46 µM) | 4 (≈ 13.8 µM) | > 8 | 0.03 (≈ 0.104 µM) |  |  |  |  |  |  |  |  |  |  |  |  | responders at 15 mg/kg (Salmonella typhimurium; 15 mg./kg. subcutaneous): 0%; responders at 30 mg/kg (Salmonella typhimurium; 30 mg./kg. subcutaneous): 20%; responders at 60 mg/kg (Salmonella typhimurium; 60 mg./kg. subcutaneous): 60%; MIC [1, 18]: 1 µg/mL (≈ 3.46 µM); MIC [5, 20]: 0.125 µg/mL (≈ 0.432 µM); MIC ([6]; Peptococcus anaerobius 1428): 1 µg/mL (≈ 3.46 µM); MIC [9, 23]: 0.03 µg/mL (≈ 0.104 µM); MIC [10, 24]: 0.25 µg/mL (≈ 0.864 µM); MIC [11, 25]: 0.25 µg/mL (≈ 0.864 µM); MIC [12, 26]: 0.5 µg/mL (≈ 1.73 µM); MIC [13, 27]: 0.25 µg/mL (≈ 0.864 µM); MIC [14, 28]: 0.25 µg/mL (≈ 0.864 µM); MIC [15, 29]: 0.03 µg/mL (≈ 0.104 µM); MIC [16, 30]: 0.06 µg/mL (≈ 0.207 µM) |
| CCOC=Nc1c(C#N)c(-c2ncc([N+](=O)[O-])n2C)nn1C [Compound 4, Ethyl N-[4-cyano-1-methyl-3-(1-methyl-5-nitro-2-imidazolyl)-pyrazol-5-yl]formimidate] |  | < 0.125 |  | < 0.125 | < 0.125 | 16 (≈ 52.8 µM) | > 32 |  | < 0.125 | < 0.125 | < 0.125 | < 0.125 | < 0.125 | < 0.125 | < 0.125 | < 0.125 | < 0.125 | < 0.125 | < 0.125 | < 0.125 | MIC (Clostridium ramosum 1313; Thomasclavelia ramosa, 1313, 24 h): < 0.125 µg/mL; MIC ([17]; Veillonella parvula, 1, 24 h): < 0.125 µg/mL |
